Measurements published in patent US8476306B2, “Urokinase inhibitors, production and use thereof” (The Medicines Company (Leipzig) GmbH, priority 2002, dated 2013).
Counter-ions that a name gives are not always drawn.

How the values were obtained:
thrombin = thrombin (Homo sapiens (Human), UniProt P00734); assay: Inhibition constants for thrombin, determined in analogy to uPA; format: biochemical
plasmin = plasmin (Homo sapiens (Human), UniProt P00747); assay: Inhibition constants for plasmin, determined in analogy to uPA; format: biochemical
trypsin [1] = assay: Inhibition constants for trypsin, determined in analogy to uPA; format: biochemical
uPA = uPA (Homo sapiens (Human), UniProt P00749); assay: Inhibition constants for uPA, determined as in Stürzebecher et al. 1997; format: biochemical
[2] = Elimination (β phase) half-life in rats after intravenous administration, plasma levels by HPLC; settings: for elimination (β phase) half-life t1/2: rats, intravenous administration 1 mg/kg; for half-life: female, Wistar, rat, plasma, iv, 1 mg/kg
Description: Female Wistar rats (240-300 g body weight) were anesthetized (ethylurethane, 2.5 g/ml in NaCl, 0.5 ml/100 g rat), after which the A. carotis located in the neck was exposed. A catheter inserted into this vessel enabled blood to be removed at specified times. The volume administered was 0.5 ml, while 0.9% NaCl was used as the administration solution. […] The resultant loss of blood was offset, immediately after removal of the sample, with 500 μl of 0.9% NaCl solution. Citrate plasma was obtained by centrifuging the blood at 1200×g for 10 min.

[3] = after s.c. administration; following acylation of the D-Ser hydroxyl; cited from earlier work
trypsin [4] = biological target: trypsin (Bos taurus, UniProt P00760); assay: Inhibition constants for trypsin, determined in analogy to uPA; format: biochemical
[5] = test system: lacZ-labeled human fibrosarcoma cell line (HT1080 AN PKZ12 K15-1); assay: Inhibiting metastasis in an animal model (lung metastases, lacZ-labeled human fibrosarcoma cells i.v.); format: in vivo, mice (strain CD1 nu/nu); settings: mice, 2 i.p. doses of 1.5 mg/kg daily from day −1 to day 21, lungs evaluated on day 22
Description: The influence of the inhibitor benzylsulfonyl-dSer-Ser-4-amidinobenzylamide on metastasis was investigated in female mice (strain CD1 nu/nu, approx. 25 g body weight, Charles River, Sulzfeld). […] from a lacZ-labeled human fibrosarcoma cell line (HT1080 AN PKZ12 K15-1, dissolved in 200 μl of PBS) were administered to the mice i.v. (Krüger et al., Cancer Metastasis Rev. 1998-99, 17, 285-294 and Krüger et al., Oncogene 1998, 16, 2419-2423). The mice in the treated group (n=17) were given 2 i.p. doses (in each case 1.5 mg/kg) of the inhibitor daily from day −1 (one day before the tumor cell inoculation) through to the 21st day (a total of 23 days). The mice in the control group (n=10) were correspondingly given 200 μl of pyrogen-free water containing 5% (v/v) ethanol. On day 22, the mice were sacrificed and the lungs were fixed in 2% formalin and 0.2% glutaraldehyde; after that, the lungs were stained with X-Gal (5-Br-4-Cl-3-indolyl-β-D-galactoside) and the number of lung metastases was determined.

sc urokinase = sc urokinase (Homo sapiens (Human), UniProt P00749); assay: Inhibiting urokinase with 4-amidinobenzylamide compounds (chromogenic substrate Bzl-βAla-Gly-Arg-pNA, Dixon Ki); format: biochemical; settings: 25° C., pH 8.0, means of at least three determinations
Source text: Determining the Inhibitory Effect
The Ki values are the means of at least three determinations.

Sequence of trypsin (P00760 24-246 limits assumed): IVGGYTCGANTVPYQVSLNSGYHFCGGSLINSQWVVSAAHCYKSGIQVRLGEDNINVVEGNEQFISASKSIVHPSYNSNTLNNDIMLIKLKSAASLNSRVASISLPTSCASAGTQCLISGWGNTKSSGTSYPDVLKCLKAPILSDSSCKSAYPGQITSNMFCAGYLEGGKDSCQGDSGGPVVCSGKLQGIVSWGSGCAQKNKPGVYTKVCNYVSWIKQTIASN
Sequence of plasmin (P00747 581-810, species assumed): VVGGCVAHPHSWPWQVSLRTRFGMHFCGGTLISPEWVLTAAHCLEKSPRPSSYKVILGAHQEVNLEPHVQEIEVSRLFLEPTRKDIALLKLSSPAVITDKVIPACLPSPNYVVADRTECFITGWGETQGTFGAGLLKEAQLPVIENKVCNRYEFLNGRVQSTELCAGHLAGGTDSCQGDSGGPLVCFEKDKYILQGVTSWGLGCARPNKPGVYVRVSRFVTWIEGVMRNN
Sequence of plasmin (P00747 97-580 partner, species assumed): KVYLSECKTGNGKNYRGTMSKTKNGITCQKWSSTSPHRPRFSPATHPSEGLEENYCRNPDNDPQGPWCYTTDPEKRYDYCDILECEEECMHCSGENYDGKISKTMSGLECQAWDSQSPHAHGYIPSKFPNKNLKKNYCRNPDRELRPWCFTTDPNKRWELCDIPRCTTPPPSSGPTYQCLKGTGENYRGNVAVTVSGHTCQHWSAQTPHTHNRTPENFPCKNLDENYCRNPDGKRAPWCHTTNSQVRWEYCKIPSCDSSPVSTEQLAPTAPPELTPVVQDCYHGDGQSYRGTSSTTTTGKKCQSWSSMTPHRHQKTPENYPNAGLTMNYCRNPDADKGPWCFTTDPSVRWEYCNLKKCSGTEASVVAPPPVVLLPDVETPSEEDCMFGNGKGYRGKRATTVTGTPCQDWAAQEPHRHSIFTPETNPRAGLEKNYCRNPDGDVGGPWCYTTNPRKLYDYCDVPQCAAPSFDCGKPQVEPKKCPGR
Sequence of trypsin (Bos taurus, UniProt P00760) (P00760 24-246 limits assumed): as the sequence (P00760 24-246 limits assumed) above

N=C(N)c1ccc(CNC(=O)CNC(=O)[C@@H](CO)NS(=O)(=O)Cc2ccc(CN)cc2)cc1 [R=4-(NH2—CH2), X=CH, R1=H, 4-(Aminomethyl)benzylsulfonyl-dSer-Gly-4-amidinobenzylamide×2 TFA]
Ki (thrombin): 8000 nM
Ki (plasmin): 7400 nM

N=C(N)c1ccc(CNC(=O)[C@H](COCc2ccccc2)NC(=O)[C@@H](CO)NS(=O)(=O)Cc2ccccc2)cc1 [R=H, X=CH, R1=CH2—O(Bzl)]
Ki (trypsin [1]): 6.8 nM
Ki (uPA): 28 nM
Ki (thrombin): 480 nM
Ki (plasmin): 270 nM

N=C(N)c1ccc(CNC(=O)[C@H](CN)NC(=O)[C@@H](CO)NS(=O)(=O)Cc2ccccc2)cc1 [R=H, X=CH, R1=CH2—NH2]
elimination (β phase) half-life t1/2 [2]: 24 min
Ki (trypsin [1]): 21 nM
Ki (uPA): 36 nM
Ki (thrombin): 780 nM
Ki (plasmin): 810 nM

N=C(N)c1ccc(CNC(=O)CNC(=O)[C@@H](CO)NS(=O)(=O)Cc2ccc(CC(=O)O)cc2)cc1 [Example 13, 4(HOOC—CH2)Benzylsulfonyl-dSer-Gly-4-Amba]
Ki (trypsin [1]): 300 nM
Ki (uPA): 130 nM
Ki (thrombin): 60000 nM
Ki (plasmin): 27000 nM

Cc1ccc(CS(=O)(=O)N[C@H](CO)C(=O)NCC(=O)NCc2ccc(C(=N)N)cc2)cc1 [R=4-Me, X=CH, R1=H]
Ki (trypsin [1]): 210 nM
Ki (uPA): 58 nM
Ki (thrombin): 8000 nM
Ki (plasmin): 18000 nM

CC(C)COC(=O)N[C@H](CO)C(=O)N[C@@H](C)C(=O)N[C@H](C=O)CCCNC(=N)N [iBuOCO-D-Ser-Ala-Arg-H]
relative bioavailability [3]: 87%

COC(=O)c1ccc(CS(=O)(=O)N[C@H](CO)C(=O)N[C@@H](CO)C(=O)NCc2ccc(C(=N)N)cc2)cc1 [R=4-COOMe, X=CH, R1=CH2—OH]
Ki (trypsin [1]): 20 nM
Ki (uPA): 230 nM
Ki (thrombin): 4200 nM
Ki (plasmin): 960 nM

N=C(N)c1ccc(CNC(=O)CNC(=O)[C@@H](CO)NS(=O)(=O)Cc2ccccc2)cc1 [R=H, X=CH, R1=H, Benzylsulfonyl-D-Ser-Gly-4-amidinobenzylamide]
elimination (β phase) half-life t1/2 [2]: 17.4 min
Ki (trypsin [1]): 150 nM
Ki (thrombin): 13000 nM
Ki (plasmin): 11000 nM

N=C(N)c1ccc(CNC(=O)CNC(=O)[C@@H](CO)NS(=O)(=O)Cc2cccc(C(=O)O)c2)cc1.O=C(O)C(F)(F)F [R=3-COOH, X=CH, R1=H, 3-(HOOC)Benzylsulfonyl-dSer-Gly-4-amidinobenzylamide×TFA]
half-life [2]: 78 min
Ki (uPA): 160 nM
Ki (thrombin): 150000 nM
Ki (plasmin): 59000 nM

N=C(N)c1ccc(CNC(=O)[C@H](CO)NC(=O)[C@@H](CO)NS(=O)(=O)Cc2cccc(C(=O)O)c2)cc1 [R=3-COOH, X=CH, R1=CH2—OH]
elimination (β phase) half-life t1/2 [2]: 25.8 min
Ki (trypsin [1]): 58 nM
Ki (uPA): 75 nM
Ki (thrombin): 200000 nM
Ki (plasmin): 4200 nM

Benzylsulfonyl-dSer-Lys(CO—O-PEG5000-OMe)-4-amidinobenzylamide×Acetate [Example 9]
Ki (trypsin [4]): 34 nM
Ki (uPA): 95 nM
Ki (thrombin): 1700 nM
Ki (plasmin): 730 nM

N=C(N)c1ccc(CNC(=O)[C@H](CCCCN)NC(=O)[C@@H](CO)NS(=O)(=O)Cc2ccccc2)cc1 [X=Lys, Benzylsulfonyl-dSer-Lys-4-amidinobenzylamide×2 TFA]
half-life [2]: 42 min
Ki (thrombin): 4300 nM
Ki (plasmin): 360 nM

N=C(N)c1ccc(CNC(=O)CNC(=O)[C@@H](CN)NS(=O)(=O)Cc2ccccc2)cc1 [Example 11, Benzylsulfonyl-dDap-Gly-4-Amba]
Ki (trypsin [1]): 180 nM
Ki (uPA): 180 nM
Ki (thrombin): 10000 nM
Ki (plasmin): 9600 nM

C[C@H](NC(=O)[C@@H](CO)NS(=O)(=O)Cc1ccc(C(=O)O)cc1)C(=O)NCc1ccc(C(=N)N)cc1 [R=4-COOH, X=CH, R1=CH3]
elimination (β phase) half-life t1/2 [2]: 39.6 min
Ki (trypsin [1]): 13 nM
Ki (uPA): 38 nM
Ki (thrombin): 2300 nM
Ki (plasmin): 3000 nM

N=C(N)c1ccc(CNC(=O)CNC(=O)[C@@H](CO)NS(=O)(=O)Cc2ccc(C(=O)O)cc2)cc1 [R=4-COOH, X=CH, R1=H]
elimination (β phase) half-life t1/2 [2]: 120 min
Ki (trypsin [1]): 480 nM
Ki (uPA): 150 nM
Ki (thrombin): 170000 nM
Ki (plasmin): 35000 nM

C[C@H](NC(=O)[C@@H](CO)NS(=O)(=O)Cc1cccc(C(=O)O)c1)C(=O)NCc1ccc(C(=N)N)cc1 [R=3-COOH, X=CH, R1=CH3]
elimination (β phase) half-life t1/2 [2]: 25.2 min
Ki (trypsin [1]): 21 nM
Ki (uPA): 30 nM
Ki (thrombin): 8300 nM
Ki (plasmin): 4700 nM

N=C(N)c1ccc(CNC(=O)[C@H](CCCN=C(N)N)NC(=O)[C@@H](CO)NS(=O)(=O)Cc2ccccc2)cc1 [X=Arg, Benzylsulfonyl-dSer-Arg-4-amidinobenzylamide×2 TFA]
half-life [2]: 36 min
Ki (thrombin): 4700 nM
Ki (plasmin): 200 nM

N=C(N)c1ccc(CNC(=O)[C@H](Cc2cnc[nH]2)NC(=O)[C@@H](CO)NS(=O)(=O)Cc2ccccc2)cc1 [Example 12, Benzylsulfonyl-dSer-His-4-Amba]
Ki (trypsin [1]): 25 nM
Ki (uPA): 110 nM
Ki (thrombin): 8500 nM
Ki (plasmin): 400 nM

N=C(N)c1ccc(CNC(=O)[C@H](CO)NC(=O)[C@@H](CO)NS(=O)(=O)Cc2ccccc2)cc1 [R=H, X=CH, R1=CH2—OH, Benzylsulfonyl-dSer-Ser-4-amidinobenzylamide×TFA]
half-life [2]: 30 min
number of lung metastases as compared with the control group (100%) [5]: 4.6%
Ki (uPA): 25 nM
Ki (thrombin): 14000 nM
Ki (plasmin): 750 nM

N=C(N)c1ccc(CNC(=O)CNC(=O)[C@@H](CO)NS(=O)(=O)Cc2ccc(Cl)cc2)cc1 [R=4-Cl, X=CH, R1=H]
Ki (trypsin [1]): 350 nM
Ki (uPA): 32 nM
Ki (thrombin): 7900 nM
Ki (plasmin): 32000 nM

N=C(N)c1ccc(CNC(=O)CNC(=O)[C@@H](CO)NS(=O)(=O)Cc2ccc(F)cc2)cc1 [R=4-F, X=CH, R1=H]
Ki (trypsin [1]): 110 nM
Ki (uPA): 31 nM
Ki (thrombin): 7900 nM
Ki (plasmin): 20000 nM

N#Cc1ccc(CS(=O)(=O)N[C@H](CO)C(=O)NCC(=O)NCc2ccc(C(=N)N)cc2)cc1 [R=4-CN, X=CH, R1=CH]
Ki (trypsin [1]): 340 nM
Ki (uPA): 89 nM
Ki (thrombin): 8500 nM
Ki (plasmin): 27000 nM

N=C(N)c1ccc(CNC(=O)[C@H](CCCCNC(=O)COCC(=O)NCCOCCOCCOCCOCCOCCOCCOCCN)NC(=O)[C@@H](CO)NS(=O)(=O)Cc2ccccc2)cc1 [Example 10, Bzls-dSer-Lys(CO—CH2—O—CH2—CO—NH—CH2—CH2-Hexaethylene-glycol-CH2—CH2—NH2)-4-amidinobenzylamide×2 TFA]
half-life [2]: 52.8 min
Ki (uPA): 42 nM
Ki (thrombin): 1400 nM
Ki (plasmin): 530 nM

CC(OCc1ccccc1)[C@H](NC(=O)[C@@H](CO)NS(=O)(=O)Cc1ccccc1)C(=O)NCc1ccc(C(=N)N)cc1 (stereo partly drawn) [R=H, X=CH, R1=CH(OBzl)CH3]
Ki (trypsin [1]): 11 nM
Ki (uPA): 61 nM
Ki (thrombin): 100 nM
Ki (plasmin): 1100 nM

CC(O)[C@H](NC(=O)[C@@H](CO)NS(=O)(=O)Cc1ccccc1)C(=O)NCc1ccc(C(=N)N)cc1 (stereo partly drawn) [R=H, X=CH, R1=CH(OH)CH3]
Ki (trypsin [1]): 30 nM
Ki (uPA): 110 nM
Ki (thrombin): 4000 nM
Ki (plasmin): 1400 nM

COC(=O)c1ccccc1CS(=O)(=O)N[C@H](CO)C(=O)NCC(=O)NCc1ccc(C(=N)N)cc1 [R=2-COOMe, X=CH, R1=H]
Ki (trypsin [1]): 400 nM
Ki (uPA): 83 nM
Ki (thrombin): 4000 nM
Ki (plasmin): 38000 nM

COC(=O)c1ccc(CS(=O)(=O)N[C@H](CO)C(=O)NCC(=O)NCc2ccc(C(=N)N)cc2)cc1 [R=4-COOMe, X=CH, R1=H]
Ki (trypsin [1]): 180 nM
Ki (uPA): 620 nM
Ki (thrombin): 9400 nM
Ki (plasmin): 17000 nM

N=C(N)c1ccc(CNC(=O)[C@H](CC(=O)O)NC(=O)[C@@H](CO)NS(=O)(=O)Cc2ccccc2)cc1
Ki (sc urokinase): 860 nM

N=C(N)c1ccc(CNC(=O)CNC(=O)[C@@H](CO)NS(=O)(=O)Cc2ccccc2C(=O)O)cc1 [R=2-COOH, X=CH, R1=H]
Ki (trypsin [1]): 2400 nM
Ki (uPA): 370 nM
Ki (thrombin): 56000 nM
Ki (plasmin): 220000 nM

N=C(N)c1ccc(CNC(=O)[C@H](CCC(=O)O)NC(=O)[C@@H](CO)NS(=O)(=O)Cc2ccccc2)cc1 [Benzylsulfonyl-D-Ser-Glu-4-amidinobenzylamide×TFA]
Ki (sc urokinase): 160 nM

N=C(N)c1ccc(CNC(=O)CNC(=O)[C@@H](CO)NS(=O)(=O)Cc2ccc(Cl)c(Cl)c2)cc1 [R=3,4-di-Cl, X=CH, R1=H]
Ki (trypsin [1]): 600 nM
Ki (uPA): 110 nM
Ki (thrombin): 8300 nM
Ki (plasmin): 32000 nM

N=C(N)c1ccc(CNC(=O)[C@H](CO)NC(=O)[C@@H](CO)NS(=O)(=O)Cc2ccc(C(=O)O)cc2)cc1 [R=4-COOH, X=CH, R1=CH2—OH]
elimination (β phase) half-life t1/2 [2]: 25.8 min
Ki (trypsin [1]): 100 nM
Ki (uPA): 230 nM
Ki (thrombin): 120000 nM
Ki (plasmin): 6200 nM

COC(=O)c1cccc(CS(=O)(=O)N[C@H](CO)C(=O)NCC(=O)NCc2ccc(C(=N)N)cc2)c1 [R=3-COOMe, X=CH, R1=H]
Ki (trypsin [1]): 290 nM
Ki (uPA): 120 nM
Ki (thrombin): 42000 nM
Ki (plasmin): 28000 nM
